Reference: patent EP4818172A1, “ASCORBIC ACID DERIVATIVES AND COSMETIC CONTAINING SAME” (Seiwa Kasei Co., Ltd., priority 2023, dated 2025)

Columns and labels:
[1] = tested on: Normal human dermal fibroblasts (NHDF); test: Hyaluronic acid production promoting effect (ELISA of supernatant); assay type: cell-based; details: sample at 10 mM or less in serum-free D-MEM, cultured 48 hours, % of control group (100%), N=3
Method: Normal human dermal fibroblasts (NHDF) were prepared in D-MEM containing 5% (v/v) fetal bovine serum to a cell density of 2.5 × 10^4 cells/well, and then pre-incubated on a 96-well plate for 24 hours. After removing the medium, samples prepared in serum-free D-MEM were added to each well and cultured for 48 hours. After the culture was completed, the amount of hyaluronic acid in the supernatant was quantified by ELISA. Measurements were performed in triplicate (N=3).
The amount of hyaluronic acid produced when the sample was measured at a concentration of 10 mM or less was compared with that of the control group, and the results (% values when the control group is set to 100%) are shown in Tables 18 to 20 based on the following criteria. • <100%: ± • 100-120%: + • 120%<: ++ [Table 18]

[2] = Stability test -2: odor and coloration of cream stored at 50°C; assay type: physicochemical; details: Test Example 2, cream stored at 50°C, total score of 10 panelists
Method: For each of the samples of Synthesis Examples 1 to 6, 1% aqueous solutions were adjusted to pH 3, 5, 7, 8, and 9 with a dilute potassium hydroxide aqueous solution, and then placed in 50 mL screw tubes and • 2: Color changes compared to immediately after preparation. • 1: Strongly colored compared to immediately after preparation. Based on the results of the above evaluation, the following classification was made: • ○: Total score of 10 panelists is 25 or more • △: Total score of 10 panelists is 16-24 • ×: The total score of 10 panelists is 15 or less [Table 10]
(§1) For each of the samples of Synthesis Examples 9 to 32, (a) and (b) shown in Table 12 were each heated and mixed. After cooling, (c) shown in Table 12 was added to prepare a cream with a pH of 7 or 9. The sample was stored at 50°C for 4 weeks, and the residual rate was determined in the same manner as in Test Example 1 and evaluated according to the criteria described below. The odor and coloration were also evaluated according to the same method and criteria as in Test Example 1. The results regarding the residual rate are shown in Tables 13 and 14, and the results regarding the odor and coloration are shown in Tables 15 and 16.

[3] = Stability test -2: residual rate in cream of pH 7 or 9 stored at 50°C; assay type: physicochemical; details: cream with 4.0 W/W% derivative
Method: as §1
• ⊚: 95% or more • ○: 85% or more, less than 95% • ×: Less than 85% [Table 12]

| SMILES | Odor After 4 weeks [2] | Residual Rate After 2 weeks ([3]; pH7, stored at 50°C) | Residual Rate After 4 weeks ([3]; pH7, stored at 50°C) | Residual Rate After 2 weeks ([3]; pH9, stored at 50°C) | Residual Rate After 4 weeks ([3]; pH9, stored at 50°C) | Hyaluronic acid production-promoting effect [1] | Coloration After 2 weeks [2] | Odor After 2 weeks [2] | Coloration After 4 weeks [2] |
| --- | --- | --- | --- | --- | --- | --- | --- | --- | --- |
| CCCCCCCCCCCCCCCC(=O)OC[C@H](O)[C@H]1OC(=O)C(OP(=O)(O)O)=C1O [Ascorbyl phosphate 3Na palmitate, reference compound] |  |  |  |  |  | ± (<100%) |  |  |  |
| CCCCCCCCC(CCCCCC)C(=O)OC[C@H](OC(=O)C(CCCCCC)CCCCCCCC)[C@H]1OC(=O)C(OC(=O)C(CCCCCC)CCCCCCCC)=C1OC(=O)C(CCCCCC)CCCCCCCC (some centres unmarked) [Ascorbyl tetrahexyldecanoate, reference compound] | Δ | ○ (85% or more, less than 95%) | × (Less than 85%) | ○ (85% or more, less than 95%) | × (Less than 85%) |  | ○ (Total score of 10 panelists is 25 or more) | ○ (Total score of 10 panelists is 25 or more) | Δ |
| CC(C)CCCCCCCCCCCCCCC(=O)OCC(OC(=O)CCCCCCCCCCCCCCC(C)C)C1OC(=O)C2=C1OCCO2 (centres unmarked) [Synthesis Example 32, 5,6-O-diisostearoyl-2,3-O-(1,2-ethanediyl) ascorbic acid] | Δ | ⊚ (95% or more) | ⊚ (95% or more) | ⊚ (95% or more) | ⊚ (95% or more) | + (100-120%) | ○ (Total score of 10 panelists is 25 or more) | ○ (Total score of 10 panelists is 25 or more) | ○ (Total score of 10 panelists is 25 or more) |
| CC1(C)COC2=C(O1)C(C(O)CO)OC2=O (centres unmarked) [synthesis example 7, 2,3-O-(2,2-dimethyl-1,2-ethanediyl) ascorbic acid] |  |  |  |  |  | + (100-120%) |  |  |  |
| CC(C)CCCCCCCCCCCCCCC(=O)OC[C@H](OC(=O)CCCCCCCCCCCCCCC(C)C)[C@H]1OC(=O)C2=C1OCCCCO2 [synthesis example 18, 5,6-O-diisostearoyl-2,3-O-(1,4-butanediyl) ascorbic acid] | Δ | ⊚ (95% or more) | ⊚ (95% or more) | ⊚ (95% or more) | ⊚ (95% or more) | ++ (120%<) | ○ (Total score of 10 panelists is 25 or more) | ○ (Total score of 10 panelists is 25 or more) | ○ (Total score of 10 panelists is 25 or more) |
| CC1(C)OCC(C2OC(=O)C3=C2OCCCCO3)O1 (centres unmarked) [synthesis example 35, 5,6-O-isopropylidene-2,3-O-(1,4-butanediyl) ascorbic acid] |  |  |  |  |  | ++ (120%<) |  |  |  |
| CC1(C)OCC(C2OC(=O)C3=C2OCCCO3)O1 (centres unmarked) [synthesis example 36, 5,6-O-isopropylidene-2,3-O-(1,3-propanediyl) ascorbic acid] |  |  |  |  |  | ++ (120%<) |  |  |  |
| O=C1OC(C2COC(c3ccccc3)O2)C2=C1OCCCCO2 (centres unmarked) [synthesis example 37, 5,6-O-(phenylmethylene)-2,3-O-(1,4-butanediyl) ascorbic acid] |  |  |  |  |  | + (100-120%) |  |  |  |
| O=C1OC(C2COC(c3ccccc3)O2)C2=C1OCCCO2 (centres unmarked) [synthesis example 38, 5,6-O-(phenylmethylene)-2,3-O-(1,3-propanediyl) ascorbic acid] |  |  |  |  |  | ++ (120%<) |  |  |  |
| CC1(C)COC2=C(O1)C(=O)OC2C(O)CO (centres unmarked) [synthetic example 8, 2,3-O-(1,1-dimethyl-1,2-ethanediyl) ascorbic acid] |  |  |  |  |  | + (100-120%) |  |  |  |
| O=C1OC(C(O)COCc2ccccc2)C2=C1OCCCCO2 (centres unmarked) [synthetic example 39, 6-O-benzyl-2,3-O-(1,4-butanediyl) ascorbic acid] |  |  |  |  |  | + (100-120%) |  |  |  |

Now from value to compound, other results behind:

| Odor After 4 weeks [2] | Residual Rate After 2 weeks ([3]; pH7, stored at 50°C) | Residual Rate After 4 weeks ([3]; pH7, stored at 50°C) | Residual Rate After 2 weeks ([3]; pH9, stored at 50°C) | Residual Rate After 4 weeks ([3]; pH9, stored at 50°C) | SMILES | Hyaluronic acid production-promoting effect [1] | Coloration After 2 weeks [2] | Odor After 2 weeks [2] | Coloration After 4 weeks [2] |
| --- | --- | --- | --- | --- | --- | --- | --- | --- | --- |
| Δ | ⊚ (95% or more) | ⊚ (95% or more) | ⊚ (95% or more) | ⊚ (95% or more) | CCCCCCCCCCCCCCCC(=O)OCC(OC(=O)CCC)C1OC(=O)C2=C1OCCCO2 (centres unmarked) [Synthesis Example 30, 5-O-butanoyl-6-O-palmitoyl-2,3-O-(1,3-propanediyl) ascorbic acid] |  | ○ (Total score of 10 panelists is 25 or more) | ○ (Total score of 10 panelists is 25 or more) | ○ (Total score of 10 panelists is 25 or more) |
| Δ | ⊚ (95% or more) | ⊚ (95% or more) | ⊚ (95% or more) | ○ (85% or more, less than 95%) | CCCCCCCC(=O)OCC(O)C1OC(=O)C2=C1OCCCCO2 (centres unmarked) [synthesis example 11, 6-O-octanoyl-2,3-O-(1,4-butanediyl) ascorbic acid] | ++ (120%<) | ○ (Total score of 10 panelists is 25 or more) | ○ (Total score of 10 panelists is 25 or more) | ○ (Total score of 10 panelists is 25 or more) |
| Δ | ⊚ (95% or more) | ⊚ (95% or more) | ⊚ (95% or more) | ⊚ (95% or more) | CCCC(=O)OCC(O)C1OC(=O)C2=C1OCCCO2 (centres unmarked) [synthesis example 20, 6-O-butanoyl-2,3-O-(1,3-propanediyl) ascorbic acid] | ++ (120%<) | ○ (Total score of 10 panelists is 25 or more) | ○ (Total score of 10 panelists is 25 or more) | ○ (Total score of 10 panelists is 25 or more) |
| Δ | ⊚ (95% or more) | ⊚ (95% or more) | ⊚ (95% or more) | ⊚ (95% or more) | CCCCCCCC(=O)OCC(O)C1OC(=O)C2=C1OCCCO2 (centres unmarked) [synthesis example 22, 6-O-octanoyl-2,3-O-(1,3-propanediyl) ascorbic acid] | ++ (120%<) | ○ (Total score of 10 panelists is 25 or more) | ○ (Total score of 10 panelists is 25 or more) | ○ (Total score of 10 panelists is 25 or more) |
| Δ | ⊚ (95% or more) | ⊚ (95% or more) | ⊚ (95% or more) | ⊚ (95% or more) | CCCCCCCCCCCC(=O)OCC(O)C1OC(=O)C2=C1OCCCO2 (centres unmarked) [synthesis example 24, 6-O-lauroyl-2,3-O-(1,3-propanediyl) ascorbic acid] | ++ (120%<) | ○ (Total score of 10 panelists is 25 or more) | ○ (Total score of 10 panelists is 25 or more) | ○ (Total score of 10 panelists is 25 or more) |
| Δ | ⊚ (95% or more) | ⊚ (95% or more) | ⊚ (95% or more) | ⊚ (95% or more) | CCCCCCCCCCCC(=O)OCC(OC(=O)CCCCCCCCCCC)C1OC(=O)C2=C1OCCCO2 (centres unmarked) [synthesis example 25, 5,6-O-dilauroyl-2,3-O-(1,3-propanediyl) ascorbic acid] | ++ (120%<) | ○ (Total score of 10 panelists is 25 or more) | ○ (Total score of 10 panelists is 25 or more) | Δ |
| Δ | ⊚ (95% or more) | ⊚ (95% or more) | ⊚ (95% or more) | ⊚ (95% or more) | CCCCCCCC(=O)OCC(OC(=O)CCC)C1OC(=O)C2=C1OCCCCO2 (centres unmarked) [synthetic example 19, 5-O-butanoyl-6-O-octanoyl-2,3-O-(1,4-butanediyl) ascorbic acid] |  | ○ (Total score of 10 panelists is 25 or more) | ○ (Total score of 10 panelists is 25 or more) | ○ (Total score of 10 panelists is 25 or more) |
